Experimental findings from patent US10961203B2, “Crystalline forms of 3-Z-[1-(4-(N-((4-methyl-piperazin-1-yl)-methylcarbonyl)-N-methyl-amino)-phenylamino)-1-phenyl-methylene]-6-methoxycarbonyl-2-indolinone” (Allgenesis Biotherapeutics Inc., priority 2017, dated 2021) are described below.

This data set is described as follows: Stability test of Crystalline Form F of Nintedanib (XRPD after storage). In kind it is physicochemical. As to conditions: polyethylene bag in desiccator, no humidity control, room temperature, three months; FIG. 15 before, FIG. 23 after. The method, then:
In each example, XRPD experiment was conducted using a Bruker D8 advance diffractometer, with a Cu Ka (wavelength 1.54056 Å) filled tube (40 kV, 40 mA) as the X-ray source having a wide angle goniometer, a 0.6 mm divergent slit, a 2.5° primary Sola slit, a 2.5° secondary Sola slit, an 8 mm anti-scattering slit, a 0.1 mm detector slit, and Lynx Eye detector, at room temperature. In a 2θ continuous scanning mode, the data acquisition was completed with a scanning speed of 2.4°/min and a scanning step of 0.02° in the range of 3° to 40°.
Crystalline Form F of Nintedanib obtained with the preparation method in Example 5 was placed in a polyethylene plastic bag, the plastic bag was then placed in a desiccator with no humidity control at room temperature for three months (from April 12 to July 12).

Molecules are shown by their SMILES.

For `COC(=O)c1ccc2c(c1)NC(=O)/C2=C(\Nc1ccc(N(C)C(=O)CN2CCN(C)CC2)cc1)c1ccccc1` [Crystalline Form F, 3-Z-[1-(4-(N-((4-methyl-piperazin-1-yl)-methylcarbonyl)-N-methyl-amino)-phenylamino)-1-phenyl-methylene]-6-methoxycarbonyl-2-indolinone], the “crystalline form by XRPD after storage (stability of Crystalline Form F)” value was “all the measurements showed a result of Crystalline Form F”.
